Patent US7741327B2 (Hoffmann-La Roche Inc., priority 2008, dated 2010)

target: T1, Recombinant human liver GK1 (GST-GK) (Homo sapiens, UniProt P35557); assay: In vitro glucokinase activity (G6PDH-coupled NADH assay); type: biochemical; conditions: 30° C., 5 mM D-glucose, 10% DMSO
T1 construct: made in house; host or cells: E. coli
T1 sequence (P35557 1-466 isoform P35557-2): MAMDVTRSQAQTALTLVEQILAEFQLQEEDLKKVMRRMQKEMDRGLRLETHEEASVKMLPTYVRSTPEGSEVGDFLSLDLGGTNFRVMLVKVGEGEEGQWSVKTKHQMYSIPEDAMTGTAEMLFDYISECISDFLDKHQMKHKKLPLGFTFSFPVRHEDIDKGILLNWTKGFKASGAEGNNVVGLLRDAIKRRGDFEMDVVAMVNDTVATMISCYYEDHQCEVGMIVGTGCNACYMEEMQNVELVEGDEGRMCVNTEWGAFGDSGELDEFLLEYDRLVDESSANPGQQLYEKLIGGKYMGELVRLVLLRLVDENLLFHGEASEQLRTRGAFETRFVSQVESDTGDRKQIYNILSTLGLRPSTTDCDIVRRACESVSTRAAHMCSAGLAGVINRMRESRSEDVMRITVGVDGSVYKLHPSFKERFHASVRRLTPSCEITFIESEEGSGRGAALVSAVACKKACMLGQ
How it was run: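 GST-tagged human liver GK1 from E. coli, assayed at 30° C in 25 mM Hepes pH 7.1 with 5 mM D-glucose, 1 mM ATP, 1.8 mM NAD and G6PDH coupling, 10% DMSO final; reaction started with enzyme after 10 min preincubation. NADH formation followed at OD340; SC1.5 is activator concentration giving 50% increase over DMSO control rate.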

Compared with CCOc1ccc(F)c(OC2=CC(=O)N([C@@H](CC(C)C)C(=O)Nc3cnc([C@H](O)CO)cn3)C2)c1F [Example 153, (S)-2-[4-(3-Ethoxy-2,6-difluoro-phenoxy)-2-oxo-2,5-dihydro-pyrrol-1-yl]-4-methyl-pentanoic acid [5-((S)-1,2-dihydroxy-ethyl)-pyrazin-2-yl]-amide], CC(C)C[C@@H](C(=O)Nc1cnccn1)N1CC(Oc2cccc(C(O)CO)c2F)=CC1=O (stereo partly drawn) [Example 155, (S)-2-{4-[3-(1,2-Dihydroxy-ethyl)-2-fluoro-phenoxy]-2-oxo-2,5-dihydro-pyrrol-1-yl}-4-methyl-pentanoic acid pyrazin-2-ylamide] is 8.3-fold higher in “SC1.5 (concentration of activator that produced a 50% increase in the activity of GK)” value: 0.207 µM for the first, 1.717 µM for the second.

C=Cc1cccc(OC2=CC(=O)N([C@@H](CC(C)C)C(=O)Nc3cnccn3)C2)c1F [Example 154, (S)-2-[4-(2-Fluoro-3-vinyl-phenoxy)-2-oxo-2,5-dihydro-pyrrol-1-yl]-4-methyl-pentanoic acid pyrazin-2-ylamide] and CC(C)C[C@@H](C(=O)Nc1ccn(C[C@@H](O)CO)n1)N1CC(Oc2ccccc2F)=CC1=O [Example 166, (S)-2-[4-(2-Fluoro-phenoxy)-2-oxo-2,5-dihydro-pyrrol-1-yl]-4-methyl-pentanoic acid [1-((R)-2,3-dihydroxy-propyl)-1H-pyrazol-3-yl]-amide] are within 1.5-fold of each other in “SC1.5 (concentration of activator that produced a 50% increase in the activity of GK)” value: 0.172 µM for the first, 0.239 µM for the second.

First: CC(C)C[C@@H](C(=O)Nc1ccn(CC(N)=O)n1)N1CC(Oc2cccc(C3CC3)c2F)=CC1=O [Example 156, (S)-2-[4-(3-Cyclopropyl-2-fluoro-phenoxy)-2-oxo-2,5-dihydro-pyrrol-1-yl]-4-methyl-pentanoic acid (1-carbamoylmethyl-1H-pyrazol-3-yl)-amide]
Second: CC(C)C[C@@H](C(=O)Nc1ccn(CC(C)(C)O)n1)N1CC(Oc2ccccc2F)=CC1=O [Example 167, (S)-2-[4-(2-Fluoro-phenoxy)-2-oxo-2,5-dihydro-pyrrol-1-yl]-4-methyl-pentanoic acid [1-(2-hydroxy-2-methyl-propyl)-1H-pyrazol-3-yl]-amide]
The “SC1.5 (concentration of activator that produced a 50% increase in the activity of GK)” value of the first is 2-fold higher: 0.406 µM for the first, 0.206 µM for the second.

First: CCC[C@@H](C(=O)Nc1ccn(C[C@@H](O)CO)n1)N1CC(Oc2c(F)cccc2F)=CC1=O [Example 157, (S)-2-[4-(2,6-Difluoro-phenoxy)-2-oxo-2,5-dihydro-pyrrol-1-yl]-pentanoic acid [1-((R)-2,3-dihydroxy-propyl)-1H-pyrazol-3-yl]-amide]
Second: O=C(Nc1ccn(C[C@@H](O)CO)n1)C(CC1(F)CCCC1)N1CC(Oc2c(F)cccc2F)=CC1=O (stereo partly drawn) [Example 159, 2-[4-(2,6-Difluoro-phenoxy)-2-oxo-2,5-dihydro-pyrrol-1-yl]-N-[1-((R)-2,3-dihydroxy-propyl)-1H-pyrazol-3-yl]-3-(1-fluoro-cyclopentyl)-propionamide]
The “SC1.5 (concentration of activator that produced a 50% increase in the activity of GK)” value of the first is 1.6-fold lower: 1.849 µM for the first, 2.867 µM for the second.

COc1cccc(OC2=CC(=O)N([C@@H](CC(C)C)C(=O)Nc3ccn(C[C@@H](O)CO)n3)C2)c1 [Example 160, (S)-2-[4-(3-Methoxy-phenoxy)-2-oxo-2,5-dihydro-pyrrol-1-yl]-4-methyl-pentanoic acid [1-((R)-2,3-dihydroxy-propyl)-1H-pyrazol-3-yl]-amide] and CCOc1cccc(OC2=CC(=O)N([C@@H](CC(C)C)C(=O)Nc3ccn(C[C@@H](O)CO)n3)C2)c1 [Example 162, (S)-2-[4-(3-Ethoxy-phenoxy)-2-oxo-2,5-dihydro-pyrrol-1-yl]-4-methyl-pentanoic acid [1-((R)-2,3-dihydroxy-propyl)-1H-pyrazol-3-yl]-amide] are within 1.5-fold of each other in “SC1.5 (concentration of activator that produced a 50% increase in the activity of GK)” value: 0.306 µM for the first, 0.307 µM for the second.

Going from CCOc1cccc(OC2=CC(=O)N([C@@H](CC(C)C)C(=O)Nc3ccn(C[C@@H](O)CO)n3)C2)c1Cl [Example 161, (S)-2-[4-(2-chloro-3-ethoxy-phenoxy)-2-oxo-2,5-dihydro-pyrrol-1-yl]-4-methyl-pentanoic acid [1-((R)-2,3-dihydroxy-propyl)-1H-pyrazol-3-yl]-amide] to CC(C)C[C@@H](C(=O)Nc1ccn(C[C@H](O)CO)n1)N1CC(Oc2ccccc2Cl)=CC1=O [Example 175, (S)-2-[4-(2-Chloro-phenoxy)-2-oxo-2,5-dihydro-pyrrol-1-yl]-4-methyl-pentanoic acid [1-((S)-2,3-dihyrxy-propyl)-1H-pyrazol-3-yl]-amide], the “SC1.5 (concentration of activator that produced a 50% increase in the activity of GK)” value rises from 0.042 µM to 0.138 µM (3.3-fold).

CCOc1cccc(OC2=CC(=O)N([C@@H](CC(C)C)C(=O)Nc3ccn(CC(C)(C)O)n3)C2)c1 [Example 163, (S)-2-[4-(3-Ethoxy-phenoxy)-2-oxo-2,5-dihydro-pyrrol-1-yl]-4-methyl-pentanoic acid [1-(2-hydroxy-2-methyl-propyl)-1H-pyrazol-3-yl]-amide] and COc1cccc(OC2=CC(=O)N([C@@H](CC(C)C)C(=O)Nc3ccn(CC(C)(C)O)n3)C2)c1 [Example 165, (S)-2-[4-(3-Methoxy-phenoxy)-2-oxo-2,5-dihydro-pyrrol-1-yl]-4-methyl-pentanoic acid [1-(2-hydroxy-2-methyl-propyl)-1H-pyrazol-3-yl]-amide] are within 1.5-fold of each other in “SC1.5 (concentration of activator that produced a 50% increase in the activity of GK)” value: 0.239 µM for the first, 0.243 µM for the second.

First: COc1cccc(OC2=CC(=O)N([C@@H](CC3CCCCC3)C(=O)Nc3ccn(C[C@@H](O)CO)n3)C2)c1 [Example 164, (S)-3-Cyclohexyl-N-[1-((R)-2,3-dihydroxy-propyl)-1H-pyrazol-3-yl]-2-[4-(3-methoxy-phenoxy)-2-oxo-2,5-dihydro-pyrrol-1-yl]-propionamide]
Second: O=C(Nc1ccn(C[C@@H](O)CO)n1)C(CC1CCC1)N1CC(Oc2ccccc2Cl)=CC1=O (stereo partly drawn) [Example 169, 2-[4-(2-chloro-phenoxy)-2-oxo-2,5-dihydro-pyrrol-1-yl]-3-cyclobutyl-N-[1-((R)-2,3-dihydroxy-propyl)-1H-pyrazol-3-yl]-propionamide]
The “SC1.5 (concentration of activator that produced a 50% increase in the activity of GK)” value of the first is 7.2-fold lower: 0.012 µM for the first, 0.086 µM for the second.

Going from CC(C)C[C@@H](C(=O)Nc1ccn(C[C@@H](O)CO)n1)N1CC(Oc2ccc3c(c2)OCCO3)=CC1=O [Example 168, (S)-2-[4-(2,3-dihydro-benzo[1,4]dioxin-6-yloxy)-2-oxo-2,5-dihydro-pyrrol-1-yl]-4-methyl-pentanoic acid [1-((R)-2,3-dihydroxy-propyl)-1H-pyrazol-3-yl]-amide] to O=C(Nc1ccn(C[C@@H](O)CO)n1)[C@H](CC1CCC1)N1CC(Oc2ccccc2Cl)=CC1=O [Example 176, (S)-2-[4-(2-chloro-phenoxy)-2-oxo-2,5-dihydro-pyrrol-1-yl]-3-cyclobutyl-N-[1-((R)-2,3-dihydroxy-propyl)-1H-pyrazol-3-yl]-propionamide], the “SC1.5 (concentration of activator that produced a 50% increase in the activity of GK)” value falls from 0.437 µM to 0.05 µM (8.7-fold).

COc1cccc(OC2=CC(=O)N(C(CC(C)(C)F)C(=O)Nc3ccn(C[C@@H](O)CO)n3)C2)c1Cl (stereo partly drawn) [Example 170, 2-[4-(2-Chloro-3-methoxyphenoxy)-2-oxo-2,5-dihydro-pyrrol-1-yl]-4-fluoro-4-methyl-pentanoic acid-[1-((R)-2,3-dihydroxy-propyl)-1H-pyrazol-3-yl]-amide] and COc1cccc(OC2=CC(=O)N(C(CC(C)(C)F)C(=O)Nc3ccn(CC(C)(C)O)n3)C2)c1Cl (stereo not shown) [Example 171, 2-[4-(2-Chloro-3-methoxy-phenoxy)-2-oxo-2,5-dihydro-pyrrol-1-yl]-4-fluoro-4-methyl-pentanoic acid [1-(2-hydroxy-2-methyl-propyl)-1H-pyrazol-3-yl]-amide] are within 1.5-fold of each other in “SC1.5 (concentration of activator that produced a 50% increase in the activity of GK)” value: 3.575 µM for the first, 3.485 µM for the second.

Compared with CC(C)C[C@@H](C(=O)Nc1ccn(C[C@@H]2CNC(=O)O2)n1)N1CC(Oc2ccccc2Cl)=CC1=O [Example 172, (S)-2-[4-(2-chloro-phenoxy)-2-oxo-2,5-dihydro-pyrrol-1-yl]-4-methyl-pentanoic acid [1-((S)-2-oxo-oxazolidin-5-ylmethyl)-1H-pyrazol-3-yl]-amide], CC(C)C[C@@H](C(=O)Nc1ccn(C[C@H]2COC(C)(C)O2)n1)N1CC(Oc2ccccc2Cl)=CC1=O [Example 174, (S)-2-[4-(2-Chloro-phenoxy)-2-oxo-2,5-dihydro-pyrrol-1-yl]-4-methyl-pentanoic acid [1-((S)-2,2-dimethyl-[1,3]dioxolan-4-yl-methyl)-1H-pyrazol-3-yl]-amide] is 4.7-fold lower in “SC1.5 (concentration of activator that produced a 50% increase in the activity of GK)” value: 0.628 µM for the first, 0.133 µM for the second.
